Results published in patent US8933029B2, “Antimicrobial and anti-inflammatory peptides” (Carrus Capital Corporation, priority 2001, dated 2015).
Marks after values point to notes of the source that are not given here. Ends that are not written are not given here.

Experiments:
TPA-induced ear edema = test: TPA ear edema model; conditions: for Topical Dose (% change vs. vehicle) 0.1%: topical 0.1%; for Topical Dose (% change vs. vehicle) 0.1% / Topical Dose (% change vs. vehicle) 1.0% / Topical Dose (% change vs. vehicle) 5 0%: ear biopsy weight six hours after TPA; for Topical Dose (% change vs. vehicle) 1.0%: topical 1.0%
[1] = test system: oxazolone contact hypersensitivity (ear inflammation); test: Oxazolone contact hypersensitivity model; format: in vivo, CD-1 mice; conditions: Dosage of 0.1%, applied to ear one hour after oxazolone challenge, ear punch weight after 24 h, 70% EtOH/30% propylene glycol vehicle
Description: Briefly, a 3.0% (w/v) solution of oxazolone in acetone/corn oil (5:1) is applied topically to the skin on the shaved abdomens of mice of approximately the same weight and approximately the same age on day 0. […] Twenty-four hours later a dermal biopsy punch of the treated ear is taken and weighed.
CD-1 mice are treated with 3% oxazolone (Sigma) (30 mg/ml) in corn oil:acetone on a shaved abdomen. All solutions are sonicated for 7 minutes. Five days later, the mice are challenged with a 2% oxazolone (20 mg/ml) in acetone on the left ear, with the right ear being left untreated (control). One hour after challenge, the candidate peptide in a 70% EtOH/30% propylene glycol formulation (vehicle) was applied to the left ear, with the right ear being left untreated. After 24 h, 7 mm ear punches are taken from each ear of the mice. The ear punches are placed on a scale and the difference between the treated and untreated ears were compared. The percent inhibition of inflammation was calculated by comparing the mean of each treated group to the control group. The positive control is hydrocortisone (a known anti-inflammatory agent). Most of the indolicidin peptides inhibited inflammation as well as hydrocortisone.

[2] = formulated in 50% ethanol/5 mM lactate buffer (*)
[3] = topical 5 0%, formulated in 50% ethanol/5 mM lactate buffer (*)
[4] = topical 5.0%, formulated in 95% ethanol

Row | Compound | Topical Dose (% change vs. vehicle) 0.1% (TPA-induced ear edema; formulated in 95% ethanol) | Topical Dose (% change vs. vehicle) 1.0% (TPA-induced ear edema; formulated in 95% ethanol) [%] | also measured
1 | C[C@@H]1C[C@H]2[C@@H]3CCC4=CC(=O)C=C[C@]4(C)[C@@]3(F)[C@@H](O)C[C@]2(C)[C@@]1(O)C(=O)CO [Dexamethasone, dexamethasone, reference compound] | −92% |  | Systemic Dose (% change vs. vehicle) 5 mg/kg (TPA-induced ear edema; systemic 5 mg/kg): >−80%; Topical Dose (% change vs. vehicle) 0.1% (TPA-induced ear edema; [2]): >−90* %
2 | CC[C@H]1OC(=O)[C@H](C)[C@@H](O[C@H]2C[C@@](C)(OC)[C@@H](O)[C@H](C)O2)[C@H](C)[C@@H](O[C@@H]2O[C@H](C)C[C@H](N(C)C)[C@H]2O)[C@](C)(O)C[C@@H](C)C(=O)[C@H](C)[C@@H](O)[C@]1(C)O [Erythromycin, erythromycin, reference compound] |  |  | Topical Dose (% change vs. vehicle) 0.1% (TPA-induced ear edema; [2]): −20* %; Topical Dose (% change vs. vehicle) 1.0% (TPA-induced ear edema; [2]): −67* %; Topical Dose (% change vs. vehicle) 5 0% (TPA-induced ear edema; [3]): −87* %
3 | C[C@]12CCC(=O)C=C1CC[C@@H]1[C@@H]2[C@@H](O)C[C@@]2(C)[C@H]1CC[C@]2(O)C(=O)CO [Hydrocortisone, hydrocortisone, reference compound] |  |  | % Inhibition of Inflammation [1]: 84.92%
4 | A-ILTWPWWPWTTT-CN (not fully specified; N-terminal A, C-terminal nitrile/amide) [Peptide 11B24ACN] |  |  | Topical Dose (% change vs. vehicle) 5 0% (TPA-induced ear edema; [4]): −75%
5 | F R F F K P K F R F P K F (FRFFKPKFRFPKF-{CN}) [Peptide 11J33CN] |  | −52 | 
6 | H-GWRFLKLAWRFLKL-OH [Peptide 11J97] | +33% | −29 | Topical Dose (% change vs. vehicle) 5 0% (TPA-induced ear edema; [4]): −49%
7 | H-GWRFLKLAWRFLKLRR-OH [Peptide 11J136] | −12% | −54 | 
8 | H-ILRWVWRIL-CN (H-ILRWVWRIL-{CN}) [Peptide 11J148CN] | −33% | −74 | 
9 | H-ILRWVWRILR-CN (H-ILRWVWRILR-{CN}; not fully specified) [Peptide 11J131CN] | −20% | −43 | 
10 | H-L(Orn)FL(Orn)W AF(Orn)L W(Orn)L-CN [Peptide 11J84CN] | −14% | −35 | 
11 | H-LRFLKW(Aib)WRFLKL-CN [Peptide 11J105CN] | −4% | −51 | 
12 | H-RILRW(Aib)WRILR-CN [Peptide 11J157CN] | +5% | −55 | 
13 | H-RILRWVWRILR-CN (H-RILRWVWRILR-{CN}) [Peptide 11J115CN] | −1% | −57 | 
14 | I L E E W P W W P W E E E (ILEEWPWWPWEEE-{CN}) [Peptide 11B11CN] |  |  | Topical Dose (% change vs. vehicle) 5 0% (TPA-induced ear edema; [3]): −64* %
15 | I L Q W P W W P W Q Q Q (ILQWPWWPWQQQ-{CN}) [Peptide 11B38CN] |  | −8 | Topical Dose (% change vs. vehicle) 5 0% (TPA-induced ear edema; [4]): −51%
16 | I L T W P W W P W T T T (ILTWPWWPWTTT-{CN}) [Peptide 11B24CN] |  | −32 | Topical Dose (% change vs. vehicle) 5 0% (TPA-induced ear edema; [4]): −64%
